Assays:
[1] = test system: Vaccinia virus; assay: Antiviral activity against Vaccinia virus WR infected BALB/c mouse assessed as mean death day at 3 mg/kg, po treated for 5 days after 24 hrs of viral inoculation; type: functional, Orthopoxvirus vaccinia
[2] = test system: Vaccinia virus; assay: Antiviral activity against Vaccinia virus WR infected BALB/c mouse assessed as mean death day at 30 mg/kg, po treated for 5 days after 48 hrs of viral inoculation; type: functional, Orthopoxvirus vaccinia
[3] = test system: Vaccinia virus; assay: Antiviral activity against Vaccinia virus WR infected BALB/c mouse assessed as mortality at 3 mg/kg, po treated for 5 days after 24 hrs of viral inoculation; type: functional, Orthopoxvirus vaccinia
[4] = test system: Cowpox virus; assay: Antiviral activity against Cowpox virus Brighton infected BALB/c mouse assessed as log reduction of viral titer per gram of spleen at 30 mg/kg, po treated for 5 days after 24 hrs of viral inoculation; type: functional, Cowpox virus (Brighton Red)
[5] = test system: Cowpox virus; assay: Antiviral activity against Cowpox virus Brighton infected BALB/c mouse assessed as log reduction of viral titer per gram of liver at 30 mg/kg, po treated for 5 days after 24 hrs of viral inoculation; type: functional, Cowpox virus (Brighton Red)
[6] = test system: Mus musculus; assay: Toxicity in BALB/c mouse at 30 mg/kg, po; type: organism-based; set-up: dose 30 mg/kg, route oral; conditions: in vivo
[7] = test system: Vaccinia virus; assay: Antiviral activity against Vaccinia virus WR infected BALB/c mouse assessed as mean death day at 10 mg/kg, po treated for 5 days after 48 hrs of viral inoculation; type: functional, Orthopoxvirus vaccinia
[8] = test system: Vaccinia virus; assay: Antiviral activity against Vaccinia virus WR infected BALB/c mouse assessed as mortality at 30 mg/kg, po treated for 5 days after 72 hrs of viral inoculation; type: functional, Orthopoxvirus vaccinia
[9] = Selectivity index, ratio of CC50 for HFF cells to EC50 for Vaccinia virus WR; type: toxicity, cell-based; conditions: human, read-out: Ratio CC50/EC50
[10] = test system: Vaccinia virus; assay: Antiviral activity against Vaccinia virus WR infected BALB/c mouse assessed as mean death day at 30 mg/kg, po treated for 5 days after 72 hrs of viral inoculation; type: functional, Orthopoxvirus vaccinia
[11] = test system: Cowpox virus; assay: Antiviral activity against Cowpox virus Brighton infected BALB/c mouse assessed as mean death day at 10 mg/kg, po treated for 5 days after 48 hrs of viral inoculation; type: functional, Cowpox virus (Brighton Red)
[12] = test system: Vaccinia virus; assay: Antiviral activity against Vaccinia virus WR infected BALB/c mouse assessed as mortality at 30 mg/kg, po treated for 5 days after 24 hrs of viral inoculation; type: functional, Orthopoxvirus vaccinia
[13] = test system: Cowpox virus; assay: Antiviral activity against Cowpox virus Brighton infected BALB/c mouse assessed as mortality at 30 mg/kg, po treated for 5 days after 72 hrs of viral inoculation; type: functional, Cowpox virus (Brighton Red)
[14] = test system: Cowpox virus; assay: Antiviral activity against Cowpox virus Brighton infected BALB/c mouse assessed as mortality at 30 mg/kg, po treated for 5 days after 24 hrs of viral inoculation; type: functional, Cowpox virus (Brighton Red)
[15] = test system: Vaccinia virus; assay: Antiviral activity against Vaccinia virus WR infected BALB/c mouse assessed as mortality at 10 mg/kg, po treated for 5 days after 24 hrs of viral inoculation; type: functional, Orthopoxvirus vaccinia
[16] = test system: Vaccinia virus; assay: Antiviral activity against Vaccinia virus WR in HFF cells assessed as reduction of viral replication after 3 days; type: functional, organism-based; conditions: Orthopoxvirus vaccinia, 72 h
[17] = test system: Cowpox virus; assay: Antiviral activity against Cowpox virus Brighton infected BALB/c mouse assessed as mean death day at 30 mg/kg, po treated for 5 days after 48 hrs of viral inoculation; type: functional, Cowpox virus (Brighton Red)
[18] = Selectivity index, ratio of CC50 for HFF cells to EC50 for Cowpox virus Brighton; type: toxicity, cell-based; conditions: human, read-out: Ratio CC50/EC50
[19] = test system: Cowpox virus; assay: Antiviral activity against Cowpox virus Brighton infected BALB/c mouse assessed as mean death day at 3 mg/kg, po treated for 5 days after 48 hrs of viral inoculation; type: functional, Cowpox virus (Brighton Red)
[20] = test system: Cowpox virus; assay: Antiviral activity against Cowpox virus Brighton infected BALB/c mouse assessed as mortality at 10 mg/kg, po treated for 5 days after 24 hrs of viral inoculation; type: functional, Cowpox virus (Brighton Red)
[21] = test system: Cowpox virus; assay: Antiviral activity against Cowpox virus Brighton infected BALB/c mouse assessed as mortality at 10 mg/kg, po treated for 5 days after 48 hrs of viral inoculation; type: functional, Cowpox virus (Brighton Red)
[22] = test system: Cowpox virus; assay: Antiviral activity against Cowpox virus Brighton infected BALB/c mouse assessed as mean death day at 3 mg/kg, po treated for 5 days after 72 hrs of viral inoculation; type: functional, Cowpox virus (Brighton Red)
[23] = test system: Cowpox virus; assay: Toxicity in Cowpox virus Brighton infected BALB/c mouse assessed as survival at 30 mg/kg, po treated for 5 days after 24 hrs of viral inoculation; type: functional, organism-based; set-up: dose 30 mg/kg; conditions: Cowpox virus (Brighton Red)
[24] = test system: Cowpox virus; assay: Antiviral activity against Cowpox virus Brighton infected BALB/c mouse assessed as mortality at 3 mg/kg, po treated for 5 days after 24 hrs of viral inoculation; type: functional, Cowpox virus (Brighton Red)
[25] = test system: Cowpox virus; assay: Antiviral activity against Cowpox virus Brighton infected BALB/c mouse assessed as mean death day at 3 mg/kg, po treated for 5 days after 24 hrs of viral inoculation; type: functional, Cowpox virus (Brighton Red)
[26] = test system: Cowpox virus; assay: Antiviral activity against Cowpox virus Brighton infected BALB/c mouse assessed as log reduction of viral titer per gram of kidney at 30 mg/kg, po treated for 5 days after 24 hrs of viral inoculation; type: functional, Cowpox virus (Brighton Red)
[27] = test system: Cowpox virus; assay: Antiviral activity against Cowpox virus Brighton infected BALB/c mouse assessed as mean death day at 10 mg/kg, po treated for 5 days after 72 hrs of viral inoculation; type: functional, Cowpox virus (Brighton Red)
[28] = test system: Cowpox virus; assay: Antiviral activity against Cowpox virus Brighton infected BALB/c mouse assessed as mean death day at 30 mg/kg, po treated for 5 days after 72 hrs of viral inoculation; type: functional, Cowpox virus (Brighton Red)
[29] = test system: Vaccinia virus; assay: Antiviral activity against Vaccinia virus WR infected BALB/c mouse assessed as mean death day at 30 mg/kg, po treated for 5 days after 24 hrs of viral inoculation; type: functional, Orthopoxvirus vaccinia
[30] = Selectivity index, ratio of CC50 for HFF cells to EC50 for Vaccinia virus Copenhagen; type: toxicity, cell-based; conditions: human, read-out: Ratio CC50/EC50
[31] = test system: Vaccinia virus; assay: Toxicity in Vaccinia virus WR infected BALB/c mouse assessed as survival at 30 mg/kg, po treated for 5 days after 24 hrs of viral inoculation; type: functional, organism-based; set-up: dose 30 mg/kg; conditions: Orthopoxvirus vaccinia
[32] = test system: Cowpox virus; assay: Antiviral activity against Cowpox virus Brighton infected BALB/c mouse assessed as mean death day at 30 mg/kg, po treated for 5 days after 24 hrs of viral inoculation; type: functional, Cowpox virus (Brighton Red)
[33] = test system: Cowpox virus; assay: Antiviral activity against Cowpox virus Brighton infected BALB/c mouse assessed as mortality at 3 mg/kg, po treated for 5 days after 72 hrs of viral inoculation; type: functional, Cowpox virus (Brighton Red)
[34] = test system: Cowpox virus; assay: Antiviral activity against Cowpox virus Brighton infected BALB/c mouse assessed as mortality at 30 mg/kg, po treated for 5 days after 48 hrs of viral inoculation; type: functional, Cowpox virus (Brighton Red)
[35] = test system: Vaccinia virus; assay: Antiviral activity against Vaccinia virus WR infected BALB/c mouse assessed as log reduction of viral titer per gram of kidney at 30 mg/kg, po treated for 5 days after 24 hrs of viral inoculation; type: functional, Orthopoxvirus vaccinia
[36] = test system: Vaccinia virus; assay: Antiviral activity against Vaccinia virus WR infected BALB/c mouse assessed as mortality at 10 mg/kg, po treated for 5 days after 48 hrs of viral inoculation; type: functional, Orthopoxvirus vaccinia
[37] = test system: Vaccinia virus; assay: Antiviral activity against Vaccinia virus Copenhagen in HFF cells assessed as reduction of viral replication after 3 days; type: functional, organism-based; conditions: Orthopoxvirus vaccinia, 72 h
[38] = test system: Vaccinia virus; assay: Antiviral activity against Vaccinia virus WR infected BALB/c mouse assessed as mortality at 30 mg/kg, po treated for 5 days after 48 hrs of viral inoculation; type: functional, Orthopoxvirus vaccinia
[39] = test system: Vaccinia virus; assay: Antiviral activity against Vaccinia virus WR infected BALB/c mouse assessed as mean death day at 3 mg/kg, po treated for 5 days after 48 hrs of viral inoculation; type: functional, Orthopoxvirus vaccinia
[40] = test system: Vaccinia virus; assay: Antiviral activity against Vaccinia virus WR infected BALB/c mouse assessed as mortality at 10 mg/kg, po treated for 5 days after 72 hrs of viral inoculation; type: functional, Orthopoxvirus vaccinia
[41] = Cytotoxicity against HFF cells after 7 days; type: cell-based; conditions: human

## CCCCCCCCCCCCCCCCOCCCOP(=O)(O)CO[C@H](CO)Cn1cnc2c(N)ncnc21
[1]
  Activity: 7 days
[2]
  Activity: 11 days
[3]
  Activity: 27%
[4]
  log10PFU: 2.5 g
[5]
  log10PFU: 2.5 g
[6]
  Activity: Non-toxic
[7]
  Activity: 8 days
[8]
  Activity: 7%
[9]
  selectivity ratio: 32
[10]
  Activity: 8 days
[11]
  Activity: 12.3 days
[12]
  Activity: 13%
[13]
  Activity: 13%
[14]
  Activity: 13%
[15]
  Activity: 0%
[16]
  EC50: 300 nM
[17]
  Activity: 16.5 days
[18]
  selectivity ratio: 485
[19]
  Activity: 12.7 days
[20]
  Activity: 67%
[21]
  Activity: 27%
[22]
  Activity: 10.1 days
[23]
  Activity: Not toxic
[24]
  Activity: 93%
[25]
  Activity: 11.4 days
[26]
  log10PFU: 2.5 g
[27]
  Activity: 12.3 days
[28]
  Activity: 6.5 days
[29]
  Activity: 7 days
[30]
  selectivity ratio: 970
[31]
  Activity: Not toxic
[32]
  Activity: 15 days
[33]
  Activity: 87%
[34]
  Activity: 13%
[35]
  log10PFU: 4 g
[36]
  Activity: 13%
[37]
  EC50: 10 nM
[38]
  Activity: 7%
[39]
  Activity: 9.2 days
[40]
  Activity: 53%
[41]
  CC50 at 168 h: 9700 nM

## CCCCCCCCCCCCCCCCCCOCCOP(=O)(O)CO[C@H](CO)Cn1cnc2c(N)ncnc21
[1]
  Activity: 8.8 days
[2]
  Activity: 9.7 days
[3]
  Activity: 67%
[4]
  log10PFU: 2.5 g
[5]
  log10PFU: 2.5 g
[6]
  Activity: Non-toxic
[7]
  Activity: 10.3 days
[8]
  Activity: 73%
[9]
  selectivity ratio: 15
[10]
  Activity: 10.5 days
[11]
  Activity: 11 days
[12]
  Activity: 27%
[13]
  Activity: 33%
[14]
  Activity: 7%
[15]
  Activity: 0%
[16]
  EC50: 100 nM
[17]
  Activity: 9.5 days
[18]
  selectivity ratio: 75
[19]
  Activity: 10.6 days
[20]
  Activity: 7%
[21]
  Activity: 20%
[22]
  Activity: 11.1 days
[23]
  Activity: Not toxic
[24]
  Activity: 60%
[25]
  Activity: 13.7 days
[26]
  log10PFU: 2.5 g
[27]
  Activity: 12.2 days
[28]
  Activity: 10.6 days
[29]
  Activity: 8.3 days
[30]
  selectivity ratio: 150
[31]
  Activity: Not toxic
[32]
  Activity: 13 days
[33]
  Activity: 93%
[34]
  Activity: 13%
[35]
  log10PFU: 4 g
[36]
  Activity: 20%
[37]
  EC50: 10 nM
[38]
  Activity: 40%
[39]
  Activity: 7.9 days
[40]
  Activity: 33%
[41]
  CC50 at 168 h: 1500 nM

Reference: ChEMBL document CHEMBL1137662, “Effect of oral treatment with hexadecyloxypropyl-[(S)-9-(3-hydroxy-2- phosphonylmethoxypropyl)adenine] [(S)-HPMPA] or octadecyloxyethyl-(S)-HPMPA on cowpox or vaccinia virus infections in mice” (Antimicrob Agents Chemother, 2007)
